The supplement of paper PMC10307832

Key:
Assay in all cases: relative viability (nuclei count vs DMSO), 5 days (fraction); higher = more cells survive
[1] = compound: CC1=CC(=CC=C1)NC2=NC(=CS2)C3=CC=NC=C3 + COc1cccc2cc(-c3nc([C@H]4CC[C@H](C(=O)O)CC4)n4ncnc(N)c34)[nH]c12 [OSI-027] (partner 0.5 µM)
How it was run: (§1)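 Dosing by pin tool came one day after lung cancer cell lines were seeded in 1536-well plates, using either one drug or a fixed anchor-drug dose plus five library-drug doses (not always all listed) in √10 steps. After 5 days, nuclei were counted on 4× images. Relative viability is treated-well nuclei count divided by vehicle-well nuclei count, and values are medians of duplicate plates.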

[2] = compound: CC1=CC(=CC=C1)NC2=NC(=CS2)C3=CC=NC=C3 + C[C@]1(O)C[C@@H](c2nc(-c3ccc4ccc(-c5ccccc5)nc4c3)c3c(N)nccn32)C1 [Linsitinib] (partner 1 µM)
How it was run: as §1

[3] = compound: CC1=CC(=CC=C1)NC2=NC(=CS2)C3=CC=NC=C3 + N=C(N)NC(=N)NCCc1ccccc1 [Phenformin] (partner 250 µM)
How it was run: as §1

[4] = compound: Cc1ccc(NC(=O)c2ccc(CN3CCN(C)CC3)cc2)cc1Nc1nc(-c2cccnc2)cs1 [Masitinib] + CCNC(=O)c1noc(-c2cc(C(C)C)c(O)cc2O)c1-c1ccc(CN2CCOCC2)cc1 [Luminespib] (partner 0.01 µM)
How it was run: as §1

Cell Line	relative viability ([1]; first compound 0.08 µM)	relative viability ([1]; first compound 0.253 µM)	relative viability ([1]; first compound 0.8 µM)	relative viability ([1]; first compound 2.53 µM)	relative viability ([1]; first compound 8 µM)	relative viability ([2]; first compound 0.08 µM)	relative viability ([2]; first compound 0.253 µM)	relative viability ([2]; first compound 0.8 µM)	relative viability ([2]; first compound 2.53 µM)	relative viability ([2]; first compound 8 µM)	relative viability ([3]; first compound 0.08 µM)	relative viability ([3]; first compound 0.253 µM)	relative viability ([3]; first compound 0.8 µM)	relative viability ([3]; first compound 2.53 µM)	relative viability ([3]; first compound 8 µM)	relative viability ([4]; first compound 0.01 µM)	relative viability ([4]; first compound 0.03162 µM)	relative viability ([4]; first compound 0.1 µM)	relative viability ([4]; first compound 0.3162 µM)	relative viability ([4]; first compound 1 µM)
NCI-H661	0.621	0.653	0.687	0.7	0.578	0.589	0.577	0.577	0.63	0.643	0.281	0.3	0.278	0.285	0.284	0.831	0.916	0.951	0.897	0.903
NCI-H727	–	0.412	0.597	0.618	0.568	0.283	0.283	0.268	0.199	0.343	–	0.376	0.586	0.477	0.4	0.494	0.324	0.831	0.341	0.416
NCI-H1944	0.374	0.36	0.384	0.329	0.39	1.17	1.15	1.26	1.19	1.12	0.191	0.187	0.203	0.178	0.198	–	0.829	–	0.576	0.697
NCI-H1755	0.485	0.7	0.58	0.653	0.588	0.949	0.886	0.857	0.911	0.677	0.505	0.524	0.566	0.598	0.546	–	0.528	0.414	0.697	0.331
H3255	0.527	0.615	0.726	0.494	0.701	0.95	0.951	0.966	0.795	0.956	0.372	0.374	0.365	0.4	0.414	0.586	0.772	0.611	1.02	0.838
201T	0.501	0.438	0.522	0.494	0.536	1.03	1.05	1	0.817	0.852	0.389	0.38	0.44	0.375	0.433	0.821	1.13	0.944	1.07	0.993
NCI-H2228	0.375	0.463	0.517	0.472	0.398	0.569	0.629	0.408	0.586	0.705	0.265	0.35	0.266	0.313	0.332	0.172	0.189	0.16	0.148	0.15
HOP-62	0.714	0.774	0.849	0.786	0.729	0.984	0.706	1.03	1.16	0.725	0.683	0.609	0.804	0.722	0.65	0.75	0.839	0.949	0.968	0.855
CAL-12T	0.45	0.546	0.542	0.469	0.528	0.766	0.801	0.747	0.847	0.847	0.513	0.518	0.604	0.537	0.516	0.513	0.403	0.363	0.469	0.306
NCI-H596	0.652	0.775	0.777	0.64	0.609	1.03	0.995	0.764	0.991	0.806	0.727	0.789	0.733	0.68	0.669	0.936	1.03	1.11	0.53	1.02
NCI-H1792	0.541	–	0.613	0.443	0.401	0.322	0.33	0.389	0.377	0.398	0.207	0.36	0.373	0.309	0.252	0.341	0.206	0.41	0.397	0.402
NCI-H2085	0.7	0.614	0.598	0.613	0.522	0.901	0.952	0.911	0.838	0.578	0.709	0.67	0.723	0.676	0.684	0.368	0.428	0.423	0.403	0.443
NCI-H2023	0.337	0.269	0.376	0.228	0.207	0.63	0.666	0.618	0.678	0.507	0.41	0.33	0.424	0.423	0.351	0.61	0.664	0.786	0.69	0.753
